Kd data for 24 molecules are collected here from patent publication US11319299B2, “Substituted carboxamides as inhibitors of WDR5 protein-protein binding” (PROPELLON THERAPEUTICS INC., priority 2016, dated 2022).

Each structure is given as a SMILES string.

In this assay the target is WDR5 (Homo sapiens (Human), UniProt P61964). The experiment in a line: Surface Plasmon Resonance (SPR) assay, KD and residence time. Format: binding. Conditions: surface plasmon resonance (SPR); read-out: WDR5 binding affinity (KD). A general note: Surface plasmon resonance follows binding to a sensor surface in real time, without labels.
One may read the Kd as the concentration at which binding is half-saturated. Take `CC1CN(c2cc(F)c(-c3cnc(N4CCN(C(C)(C)C)CC4)nc3)cc2NC(=O)c2ccc(F)cc2C(F)(F)F)CCN1C` (stereo in doubt) [Example 557, N-[5-[2-(4-tert-butylpiperazin-1-yl)pyrimidin-5-yl]-4-fluoro-2-[(3R)-3,4-dimethylpiperazin-1-yl]phenyl]-4-fluoro-2-(trifluoromethyl)benzamide]: the dissociation constant (Kd) came to 1.09 nM.

For the molecule `CC1CN(c2cc(F)c(-c3cnc(N4CCOC(C)(C)C4)nc3)cc2NC(=O)c2ccc(F)cc2C(F)(F)F)CCN1C` (stereo in doubt) [Example 558, N-[5-[2-(2,2-dimethylmorpholin-4-yl)pyrimidin-5-yl]-4-fluoro-2-[(3R)-3,4-dimethylpiperazin-1-yl]phenyl]-4-fluoro-2-(trifluoromethyl)benzamide], the Kd came out at 3.78 nM.

On to `CC1CN(c2cc(F)c(-c3ccc(C(N)=O)c(F)c3)cc2NC(=O)c2c[nH]c(=O)cc2C(F)F)CCN1C` (stereo in doubt) [Example 595, N-[5-(4-carbamoyl-3-fluorophenyl)-4-fluoro-2-[(3R)-3,4-dimethylpiperazin-1-yl]phenyl]-4-(difluoromethyl)-6-oxo-1H-pyridine-3-carboxamide], for which the Kd amounted to 1.18 nM.

With `CC1CN(c2cc(F)c(-c3ccc(F)c(C(N)=O)c3)cc2NC(=O)c2c[nH]c(=O)cc2C(F)F)CCN1C` (stereo in doubt) [Example 596, N-[5-(3-carbamoyl-4-fluorophenyl)-4-fluoro-2-[(3R)-3,4-dimethylpiperazin-1-yl]phenyl]-4-(difluoromethyl)-6-oxo-1H-pyridine-3-carboxamide], the dissociation constant Kd came out at 4.03 nM.

For the molecule `CNC(=O)c1ccc(-c2cc(NC(=O)c3c[nH]c(=O)cc3C(F)F)c(N3CCN(C)C(C)C3)cc2F)cc1F` (stereo in doubt) [Example 597, 4-(difluoromethyl)-N-[4-fluoro-5-[3-fluoro-4-(methylcarbamoyl)phenyl]-2-[(3R)-3,4-dimethylpiperazin-1-yl]phenyl]-6-oxo-1H-pyridine-3-carboxamide], the Kd stood at 0.711 nM.

Take `CNC(=O)c1cc(-c2cc(NC(=O)c3c[nH]c(=O)cc3C(F)F)c(N3CCN(C)C(C)C3)cc2F)ccc1F` (stereo in doubt) [Example 598, 4-(difluoromethyl)-N-[4-fluoro-5-[4-fluoro-3-(methylcarbamoyl)phenyl]-2-[(3R)-3,4-dimethylpiperazin-1-yl]phenyl]-6-oxo-1H-pyridine-3-carboxamide]: the dissociation constant Kd was 1.51 nM.

In the case of `CC1CN(c2cc(F)c(-c3nccc(N4CCOCC4)n3)cc2NC(=O)c2c[nH]c(=O)cc2C(F)(F)F)CCN1C` (stereo in doubt) [Example 599, N-[4-fluoro-5-(4-morpholin-4-ylpyrimidin-2-yl)-2-[(3R)-3,4-dimethylpiperazin-1-yl]phenyl]-6-oxo-4-(trifluoromethyl)-1H-pyridine-3-carboxamide], the Kd is 4.18 nM.

Turning to `C[C@@H]1CN(c2cc(F)c(-c3cnc(N4CCOC[C@H]4C)nc3)cc2NC(=O)c2cn(C)c(=O)cc2C(F)F)CCN1C` (stereo in doubt) [Example 607, 4-(difluoromethyl)-N-[4-fluoro-2-[(3R)-3,4-dimethylpiperazin-1-yl]-5-[2-[(3R)-3-methylmorpholin-4-yl]pyrimidin-5-yl]phenyl]-1-methyl-6-oxopyridine-3-carboxamide], the Kd came out at 1.53 nM.

For `Cc1cc(C(=O)Nc2cc(-c3cnc(N4CCOC(C)C4)nc3)c(F)cc2N2C[C@@H](C)N(C)[C@@H](C)C2)cc(C)c1F` (stereo in doubt) [Example 611, 4-fluoro-N-[4-fluoro-5-[2-[(2R)-2-methylmorpholin-4-yl]pyrimidin-5-yl]-2-[(3S,5R)-3,4,5-trimethylpiperazin-1-yl]phenyl]-3,5-dimethylbenzamide], the Kd turned out to be 1.55 nM.

On to `CC1CN(c2cc(F)c(-c3cnc(N4CCC(C)(O)CC4)nc3)cc2NC(=O)c2ccc(F)cc2C(F)(F)F)CCN1C` (stereo in doubt) [Example 613, 4-fluoro-N-[4-fluoro-5-[2-(4-hydroxy-4-methylpiperidin-1-yl)pyrimidin-5-yl]-2-[(3R)-3,4-dimethylpiperazin-1-yl]phenyl]-2-(trifluoromethyl)benzamide], for which the Kd came out at 0.922 nM.

In the case of `CC1CN(c2cc(F)c(-c3ccnc(N4CCOCC4)n3)cc2NC(=O)c2ccc(F)cc2C(F)(F)F)CCN1C` (stereo in doubt) [Example 614, 4-fluoro-N-[4-fluoro-5-(2-morpholin-4-ylpyrimidin-4-yl)-2-[(3R)-3,4-dimethylpiperazin-1-yl]phenyl]-2-(trifluoromethyl)benzamide], the Kd came to 0.733 nM.

Take `CC1CN(c2cc(F)c(-c3cnc(N4CCOCC4)s3)cc2NC(=O)c2c[nH]c(=O)cc2C(F)(F)F)CCN1C` (stereo in doubt) [Example 618, N-[4-fluoro-5-(2-morpholin-4-yl-1,3-thiazol-5-yl)-2-[(3R)-3,4-dimethylpiperazin-1-yl]phenyl]-6-oxo-4-(trifluoromethyl)-1H-pyridine-3-carboxamide]: the Kd was 1.13 nM.

For the molecule `CC1CN(c2cc(F)c(-c3csc(N4CCOCC4)n3)cc2NC(=O)c2cn(C)c(=O)cc2C(F)F)CCN1C` (stereo in doubt) [Example 620, 4-(difluoromethyl)-N-[4-fluoro-5-(2-morpholin-4-yl-1,3-thiazol-4-yl)-2-[(3R)-3,4-dimethylpiperazin-1-yl]phenyl]-1-methyl-6-oxopyridine-3-carboxamide], the Kd amounted to 4.19 nM.

With `CC1CN(c2cc(F)c(-c3cnc(N4CCOCC4)s3)cc2NC(=O)c2cn(C)c(=O)cc2C(F)F)CCN1C` (stereo in doubt) [Example 621, 4-(difluoromethyl)-N-[4-fluoro-5-(2-morpholin-4-yl-1,3-thiazol-5-yl)-2-[(3R)-3,4-dimethylpiperazin-1-yl]phenyl]-1-methyl-6-oxopyridine-3-carboxamide], the Kd is 4.84 nM.

As for `CC1CN(c2cc(F)c(-c3cc(C(=O)NC(C)(C)CC(C)(C)C)c(F)cc3F)cc2NC(=O)c2ccc(F)cc2C(F)(F)F)CCN1C` (stereo in doubt) [Example 625, 2,4-difluoro-5-[2-fluoro-5-[[4-fluoro-2-(trifluoromethyl)benzoyl]amino]-4-[(3R)-3,4-dimethylpiperazin-1-yl]phenyl]-N-(2,4,4-trimethylpentan-2-yl)benzamide], the Kd stood at 172 nM.

As for `C[C@@H]1CN(c2cc(F)c(-c3cnc(N4CCOC[C@H]4C)nc3)cc2NC(=O)c2c[nH]c(=O)cc2C(F)F)CCN1C` (stereo in doubt) [Example 628, 4-(difluoromethyl)-N-[4-fluoro-2-[(3R)-3,4-dimethylpiperazin-1-yl]-5-[2-[(3R)-3-methylmorpholin-4-yl]pyrimidin-5-yl]phenyl]-6-oxo-1H-pyridine-3-carboxamide], the dissociation constant Kd came to 1.25 nM.

For the molecule `CC1CN(c2cc(F)c(-c3cc(C(N)=O)c(F)cc3F)cc2NC(=O)c2ccc(F)cc2C(F)(F)F)CCN1C` (stereo in doubt) [Example 635, 2,4-difluoro-5-[2-fluoro-5-[[4-fluoro-2-(trifluoromethyl)benzoyl]amino]-4-[(3R)-3,4-dimethylpiperazin-1-yl]phenyl]benzamide], the Kd was found to be 66.9 nM.

In the case of `CC1CN(c2cc(F)c(C3=CCCN(c4ncccn4)C3)cc2NC(=O)c2ccc(F)cc2C(F)(F)F)CCN1C` (stereo in doubt) [Example 649, 4-fluoro-N-[4-fluoro-5-(1-pyrimidin-2-yl-3,6-dihydro-2H-pyridin-5-yl)-2-[(3R)-3,4-dimethylpiperazin-1-yl]phenyl]-2-(trifluoromethyl)benzamide], the Kd is 1.87 nM.

On to `CC1CN(c2cc(F)c(C3=CCCN(c4ncc(C=O)cn4)C3)cc2NC(=O)c2ccc(F)cc2C(F)(F)F)CCN1C` (stereo in doubt) [Example 650, 4-fluoro-N-[4-fluoro-5-[1-(5-formylpyrimidin-2-yl)-3,6-dihydro-2H-pyridin-5-yl]-2-[(3R)-3,4-dimethylpiperazin-1-yl]phenyl]-2-(trifluoromethyl)benzamide], for which the Kd was 5.18 nM.

Regarding `CC1CN(c2cc(F)c(-c3ccc(C(N)=O)c(F)c3)cc2NC(=O)c2cn(C)c(=O)cc2C(F)F)CCN1C` (stereo in doubt) [Example 652, N-[5-(4-carbamoyl-3-fluorophenyl)-4-fluoro-2-[(3R)-3,4-dimethylpiperazin-1-yl]phenyl]-4-(difluoromethyl)-1-methyl-6-oxopyridine-3-carboxamide], the Kd came out at 5.29 nM.

With `CNC(=O)c1ccc(-c2cc(NC(=O)c3cn(C)c(=O)cc3C(F)F)c(N3CCN(C)C(C)C3)cc2F)cc1F` (stereo in doubt) [Example 653, 4-(difluoromethyl)-N-[4-fluoro-5-[3-fluoro-4-(methylcarbamoyl)phenyl]-2-[(3R)-3,4-dimethylpiperazin-1-yl]phenyl]-1-methyl-6-oxopyridine-3-carboxamide], the Kd was determined as 3.43 nM.

For `CC1CN(c2cc(F)c(-c3ccnc(N4CCOCC4)n3)cc2NC(=O)c2ccc(F)cc2C(F)F)CCN1C` (stereo in doubt) [Example 655, 2-(difluoromethyl)-4-fluoro-N-[4-fluoro-5-(2-morpholin-4-ylpyrimidin-4-yl)-2-[(3R)-3,4-dimethylpiperazin-1-yl]phenyl]benzamide], the Kd is 1.06 nM.

With `CC1CN(c2cc(F)c(-c3cc(F)c(C(N)=O)c(F)c3)cc2NC(=O)c2ccc(F)cc2C(F)(F)F)CCN1C` (stereo in doubt) [Example 657, 2,6-difluoro-4-[2-fluoro-5-[[4-fluoro-2-(trifluoromethyl)benzoyl]amino]-4-[(3R)-3,4-dimethylpiperazin-1-yl]phenyl]benzamide], the Kd turned out to be 4.69 nM.

On to `C[C@@H]1CN(c2nccc(-c3cc(NC(=O)c4ccc(F)cc4C(F)(F)F)c(N4CCN(C)[C@H](C)C4)cc3F)n2)CCO1` (stereo in doubt) [Example 660, 4-fluoro-N-[4-fluoro-2-[(3R)-3,4-dimethylpiperazin-1-yl]-5-[2-[(2R)-2-methylmorpholin-4-yl]pyrimidin-4-yl]phenyl]-2-(trifluoromethyl)benzamide], for which the Kd stood at 0.29 nM.
